Read-outs that look alike come from different tables or passages of the source. Each block holds one molecule with its values, some of them ahead of it.
Experiments:
[1] = test system: K562 cells; assay: K562 cell culture and growth assay, 6 day MTT; assay type: cell-based, human; conditions: K562, 6 days
Procedure: This example describes the procedure used for cell culture and growth assays. Human leukemia, Philadelphia-chromosome-positive CML cell line K562 was obtained from ATCC (Rockville, Md.). Cells were cultured in RPMI medium containing 10% fetal calf serum, 2 mM glutamine, 100 units/ml of penicillin and 100 μg/ml streptomycin Cells (2×10^3 cells/well) were incubated with increasing concentrations of compounds of the present invention dissolved in DMSO in a final volume of 200 μl in 96-well plates. Control cells were incubated with medium containing identical concentrations of the DMSO solvent. Growth of K562 cells was quantitated after 6 days by ability of living cells to reduce the yellow dye 3-(4,5-dimethylthiazolyl)-2,5-diphenyltetrazolium bromide (MTT) to a blue formazan product. Further information concerning this procedure is provided by Mossman T., “Rapid Colorimetric Assay for Cellular Growth and Survival—Application to Proliferation and Cytotoxicity Assays,” J. Immunol. Methods 1983, 65:55-63, which is incorporated herein by reference.

[2] = test system: panel of approximately 60 different human tumor cell lines; assay: National Cancer Institute drug screen, mean-graph parameters; assay type: cell-based; conditions: mean over cell line panel, two days exposure; for GI50: Homo sapiens, 48 h, read-out: Tumor cell Mean log GI50 (converted)
Procedure: Compounds of the present invention also have been subjected to the drug screening procedure employed by the National Cancer Institute for the screening of drugs having possible anticancer utility. The screening procedure uses a diverse, disease-oriented panel consisting of approximately 60 different human tumor cell lines organized into disease-specific subpanels. The compounds of the present invention were tested over a range of concentrations for cytotoxic or growth-inhibitory effects against cell lines comprising the panel. The eight subpanels represented diverse histologies (leukemias, melanomas, and tumors of the lung, colon, kidney, breast, ovary, and brain).
Compounds of the present invention were tested over a period of two days. During this period the cells were continuously exposed to various concentrations of the compounds tested. The tests produced individual dose-responses, one for each cell line (i.e. one for each example), and the data were represented in dose-response curves. The data provided by these dose response curves were summarized using a mean-graph format.
To produce data for the mean-graph format, a compound concentration that produced a target level response was calculated for each cell line. Three different response parameters were evaluated. The first response parameter was the growth inhibition (“GI50”). GI50 is the concentration of compounds made according to the present invention that produced an apparent 50% decrease in the number of tumor cells relative to the appropriate control (not exposed to the compounds of the present invention) at the end of the incubation period.
The second response parameter was the total growth inhibition (“TGI”). TGI is the concentration at which the number of tumor cells remaining at the end of the incubation period substantially equal the number of tumor cells existing at the start of the incubation period.
The third response parameter was the lethal concentration (“LC50”) LC50 is the concentration of compounds made according to the present invention that caused an apparent 50 percent reduction in the number of tumor cells […] at the start of the incubation period.
In a typical GI50 mean graph, the relative position of the vertical reference line along the horizontal concentration axis was obtained by averaging the negative log10GI50 values for all the cell lines tested against the compound. Horizontal bars were then plotted for the individual negative log10GI50 values of each cell line relative to the vertical reference line. The GI50 graph thus provided a characteristic fingerprint for the compound, displaying the individual cell lines that are proportionately more sensitive than average (bars extending to the right of the reference line) or proportionately less sensitive than average (bars extending to the left of the reference line). The length of a bar was proportional to the difference between the log10GI50 value obtained with the particular cell line and the mean (represented by the vertical reference line).
Similar mean graphs were prepared for the TGI and LC50 response parameters.

[3] = test system: minimum of 12 human cancer cell lines; assay: Hollow fiber assay in mice, point score; assay type: in vivo; conditions: for Hollow Fiber Assay IP score: first number of cell; for Hollow Fiber Assay SC score: second number of cell
Procedure: Compounds satisfying Formulas 1 and 2 also have been tested for in vivo activity in the hollow fiber assay. See Example 12 below for the procedure used for the in vivo tests. Each compound tested was tested against a minimum of 12 human cancer cell lines. Data is reported as % T/C (i.e., the […]) for each of the 2 compound doses against each of the cell lines with separate values calculated for the intraperitoneal and subcutaneous samples, with a target value for % T/C being about 50 or less.
Compounds were selected for further in vivo testing in standard subcutaneous xenograft models on the basis of several hollow fiber assay criteria. These criteria include: (1) a % T/C of 50 or less in 10 of the 48 possible test combinations (12 cell lines×2 sites×2 compound doses); (2) activity at a distance (intrapentoneal drug/subcutaneous culture) in a minimum of 4 of the 24 possible combinations; and/or (3) a net cell kill of 1 or more cell lines in either implant site. To simplify evaluation, a point system has been adopted which allows rapid assessment of a compound's activity. A value of 2 is assigned for each compound dose which results in a 50% or greater reduction in viable cell mass. The intraperitoneal and subcutaneous samples were scored separately so that criteria (1) and (2) could be evaluated. Compounds with a combined IP+SC score≧20, an SC score≧8, or a net cell kill of one or more cell lines were referred for xenograft testing. These criteria have been statistically validated by comparing the activity outcomes of greater than 80 randomly selected compounds in the hollow fiber assay and in the xenograft testing.
This example describes the method used for in vivo testing of mice. Human cancer cells were cultivated in polyvinylidene fluoride (PVDF) hollow fibers. A sample of each cancer cell line was implanted intraperitoneally and subcutaneously in mice. Each mouse received a total of 6 fibers, 3 intraperitoneally and 3 subcutaneously, representing 3 distinct cancer cell lines. Three mice were treated with compounds made according to the present invention at each of two test doses intraperitoneally using a QD×4 treatment schedule. Vehicle controls consisted of 6 mice receiving the compound diluent only The fiber cultures were collected on the day following the last treatment. Anticancer effects were assessed by determining viable cell mass for each of the coil line using a formazan dye (MTT) conversion assay. From this, the % TIC was calculated using the average optical density of the compound-treated samples divided by the average optical density of the vehicle controls. In addition, the net increase in cell mass was determined for each sample as samples of fiber cultures were assessed for viable cell mass on the day of implantation into mice. This allowed cytostatic and cytocidal capacities of these compounds to be assessed.

[4] = molecular target: T1, p210^bcr-abl (Homo sapiens, UniProt P00519); assay: Inhibition of in vitro auto-phosphorylation of p210^bcr-abl, immune-complex kinase assay; assay type: biochemical; conditions: Table 4; for IC50: read-out: IC50 (p210^ber-abi in vitro phosphorylation)
T1 construct: immune complexes containing ^32P-labeled p210^bcr-abl were collected on protein Sepharose beads; BCR (N-terminal part of the breakpoint cluster region protein, natural fusion partner); endogenous in cells; host or cells: K562 cells (lysate, immunoprecipitated on Protein A-Sepharose); the other entry of the earlier key: BCR (P11274, Breakpoint cluster region protein)
T1 sequence (P00519 with tags, fused parts or gaps): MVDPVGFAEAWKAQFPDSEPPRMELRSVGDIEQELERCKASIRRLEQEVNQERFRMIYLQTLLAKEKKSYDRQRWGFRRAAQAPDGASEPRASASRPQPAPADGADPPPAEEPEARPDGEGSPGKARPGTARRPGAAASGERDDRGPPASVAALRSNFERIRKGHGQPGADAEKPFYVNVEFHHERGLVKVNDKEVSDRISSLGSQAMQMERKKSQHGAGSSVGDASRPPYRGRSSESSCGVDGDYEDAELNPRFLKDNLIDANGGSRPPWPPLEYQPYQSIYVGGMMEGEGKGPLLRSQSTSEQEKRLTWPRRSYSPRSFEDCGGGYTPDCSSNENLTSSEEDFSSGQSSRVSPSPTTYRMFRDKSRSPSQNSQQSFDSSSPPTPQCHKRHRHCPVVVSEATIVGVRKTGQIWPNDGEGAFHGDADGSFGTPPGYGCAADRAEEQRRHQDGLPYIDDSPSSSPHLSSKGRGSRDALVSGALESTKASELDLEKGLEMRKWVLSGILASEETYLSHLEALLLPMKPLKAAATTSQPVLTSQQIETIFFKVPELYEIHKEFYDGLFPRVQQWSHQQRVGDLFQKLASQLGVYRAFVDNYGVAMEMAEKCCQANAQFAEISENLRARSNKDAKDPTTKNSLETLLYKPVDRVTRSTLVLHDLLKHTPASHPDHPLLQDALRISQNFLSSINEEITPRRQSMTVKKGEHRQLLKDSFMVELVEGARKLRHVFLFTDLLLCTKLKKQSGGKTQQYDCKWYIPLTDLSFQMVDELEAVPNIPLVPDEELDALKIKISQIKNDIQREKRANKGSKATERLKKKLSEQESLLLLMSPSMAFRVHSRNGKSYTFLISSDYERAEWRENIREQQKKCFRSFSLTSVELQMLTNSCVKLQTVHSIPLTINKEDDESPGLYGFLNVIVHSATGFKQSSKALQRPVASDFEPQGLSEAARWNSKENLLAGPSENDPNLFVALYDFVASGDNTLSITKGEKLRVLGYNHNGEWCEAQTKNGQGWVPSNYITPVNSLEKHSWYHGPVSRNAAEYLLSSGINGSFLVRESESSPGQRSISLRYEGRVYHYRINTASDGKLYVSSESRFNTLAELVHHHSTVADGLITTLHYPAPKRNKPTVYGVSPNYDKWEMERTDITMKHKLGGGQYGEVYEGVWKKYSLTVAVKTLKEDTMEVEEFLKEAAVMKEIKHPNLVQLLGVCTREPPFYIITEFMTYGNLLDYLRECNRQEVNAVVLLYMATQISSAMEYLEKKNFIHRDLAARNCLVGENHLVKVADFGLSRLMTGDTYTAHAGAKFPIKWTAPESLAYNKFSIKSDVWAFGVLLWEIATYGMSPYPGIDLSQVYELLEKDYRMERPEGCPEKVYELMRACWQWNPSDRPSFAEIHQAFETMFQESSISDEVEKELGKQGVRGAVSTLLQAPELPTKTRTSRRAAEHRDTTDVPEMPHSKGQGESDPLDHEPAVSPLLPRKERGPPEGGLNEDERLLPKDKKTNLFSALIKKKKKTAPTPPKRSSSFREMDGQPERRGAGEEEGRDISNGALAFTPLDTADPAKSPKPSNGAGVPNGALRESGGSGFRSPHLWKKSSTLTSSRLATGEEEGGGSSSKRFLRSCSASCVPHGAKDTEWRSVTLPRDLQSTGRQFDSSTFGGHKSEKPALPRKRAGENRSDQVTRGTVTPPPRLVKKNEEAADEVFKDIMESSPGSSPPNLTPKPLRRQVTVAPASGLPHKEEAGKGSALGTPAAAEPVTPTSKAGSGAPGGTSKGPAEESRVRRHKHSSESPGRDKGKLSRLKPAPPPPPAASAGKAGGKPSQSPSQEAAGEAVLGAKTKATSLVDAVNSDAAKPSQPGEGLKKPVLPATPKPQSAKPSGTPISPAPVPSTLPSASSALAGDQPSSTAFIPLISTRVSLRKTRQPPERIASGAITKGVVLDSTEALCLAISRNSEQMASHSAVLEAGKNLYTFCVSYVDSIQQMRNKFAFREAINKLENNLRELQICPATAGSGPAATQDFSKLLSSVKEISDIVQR
Procedure: Inhibition of in vitro auto-phosphorylation of p210^bcr-abl in immune-complex kinase assays were conducted as follows. K562 cell line cells were washed twice in […]. The washed cells were lysed in PLC lysis buffer 150 mM HEPES (pH 7.5), 150 mM NaCl, 10% (v/v) glycerol, 1% (v/v) Triton X-100, 1.5 mM MgCl2, 1 mM EGTA. 10 μg/ml leupeptin, 10 μg/ml aprotinin, 1 mM sodium orthovanadate. 10 mM sodium pyrophosphate, 100 mM sodium fluoride and 1 mM phenylmethyl sulfonyl fluoride| Cell lysates were centrifuged at 100,000 g for 15 minutes and the supernatant collected. Protein concentrations of the clarified supernatants were determined by the Bradford Protein Assay, and the same quantity of protein was immunoprecipitated from control (vehicle-treated) and drug-treated cells. Cell lysates were incubated and gently rocked at 4° C. for 4 hours overnight with antibodies. Immune complexes were collected by incubation with Protein A-Sepharose beads (Pharmacia, Piscataway N.J.) and immune complexes (beads) were washed three times with HNTG buffer [20 mM HEPES (pH 7.5), 10% glycerol, 0.1% Triton X-100, 150 mM NaCl and 1 mM sodium orthovanadate] to remove unbound material. Bound proteins were boiled for 5 minutes in 2×SDS sample buffer (63 mM Tris-HCl, ph 6.8; 10% glycerol; 2% SDS; 0.0025% bromophenol blue: and […] 2 mercaptoethanol) prior to SDS-PAGE. Proteins were resolved on 4-20% gradient mini gels from Novex Experimental Technology (San Diego, Calif.).
After SDS-PAGE, proteins were electrophoretically transferred onto Immobilon polyvinylidene difluoride (PVDF) membranes (Millipore, Bedford, Mass.) at 250 mA for 4 hours at 4° C. using 2× Tris glycine transfer buffer (50 mM Tris, glycine), 20% methanol and 0.1% SDS. Residual binding sites on the membrane were blocked by incubation in TTS (20 mM Tris pH 7.4, 0.9% NaCl and 0.05% Tween 20) containing 3% BSA overnight at 4° C. or for 4 hours at room temperature. Blots were incubated for 1-1.5 hours with TTS containing 0.3% BSA with 1 μg/ml of mouse anti-P-Tyr, 2 μg/ml of mouse anti-Grb2 or 1 μg/ml of rabbit anti-She antibody. Blots were washed three times for 6 minutes each with TTS containing 0.3% BSA and probed with a 1:1000 dilution of rabbit anti-mouse antibody or directly with [^125I]Protein A (Amersham, Arlington Heights, Ill.) in blocking solutions. Proteins were visualized by autoradiography (exposed for 1-2 days at −70° C.).
The p210^bcr-abl, protein immunoprecipitates were washed twice with HTNG buffer Immunoprecipitates were washed once with 50 mM Tris (pH 7.0) and distributed to each reaction in 20 μl of 20 mM PIPES [piperazine-N,N′-bis(ethanesulfonic acid)] (pH 7.0)−20 mM MnCl2. Then, 10 μl of compounds made according to the present invention at desired concentrations from working stock solution prepared in 20 mM PIPEs (pH 7.0)−20 mM MnCl2 were added to each reaction tube. Reactions were initiated with the addition of 10 μl of [γ-^33P]ATP (10 μCi per sample, 3000 Ci/mmol; Amersham), incubated for 20 minutes at 30° C., stopped by addition of 10 μl of 5×SDS sample buffer, heated at 100° C. for 5 minutes, and analyzed on 4-20% SDS-PAGE and by autoradiography.
To assess the effect of drugs added in vitro on the state of p210^bcr-abl in the immune complexes, K562 cells were labeled with ^32P, lysed in PLC buffer and immune complexes containing ^32P-labeled p210^bcr-abl were collected on protein Sepharose beads and beads were washed four times with HNTG buffer. Immune complexes were divided into several tubes in 30 μl of PLC buffer in the presence of compounds made as described herein.

[5] = Homo sapiens, 144 h, Table 4, read-out: IC50 (6d MTT)
[6] = Homo sapiens, 144 h, Table 9, mean ± S.E., 4 or more experiments, read-out: IC50 (μM) 6dMTT

Compound: COC(=O)c1ccc(NCc2cc(OC)ccc2OC)cc1 [COOCH3 / H / CH3]
IC50 ([1]; Homo sapiens, 144 h, Table 8, mean+S.E., 4 or more experiments, read-out: IC50 (μM) 6 dMTT): 41.3 µM
Tumor Cell Mean log GI50 ([2]; Table 8): −4.40
Tumor Cell Mean log TGI ([2]; Table 8): −4.04

Compound: O=C(O)c1ccc(/C=C/c2cc(O)ccc2O)cc1O [COOH / 2,5-dihydroxyphenyl / CH═CH / OH]
Tumor Cell Mean log GI50 ([2]; Table 10): >−5.03
Tumor Cell Mean log TGI ([2]; Table 10): >−5.0

Compound: COc1ccc(OC)c(CNc2ccc(C(=O)O)cc2)c1 [COOH / H / CH3]
IC50 ([1]; Table 8, mean+S.E., 4 or more experiments, read-out: IC50 (μM) 6 dMTT): 100 µM
Tumor Cell Mean log GI50 ([2]; Table 8): −4.0
Tumor Cell Mean log TGI ([2]; Table 8): −4.0

Compound: CC(C)OC(=O)c1cc(NCc2c(O)ccc(O)c2Br)ccc1Cl [Compound 13]
IC50 [4]: 10 µM
IC50 [1, 5]: 18 µM

Compound: CC(C)(C)OC(=O)c1ccc(NCc2cc(O)ccc2O)cc1 [Compound 14]
IC50 [4]: 10 µM
IC50 [1, 5]: 7 µM

Compound: COC(=O)c1ccc(NCc2cc(O)c3ccccc3c2O)cc1 [Compound 18]
IC50 [1, 6]: 6.83 ± 1.68 µM
GI50 ([2]; Table 9): 8.91 µM
Tumor Cell Mean log TGI ([2]; Table 9): −4.62
Hollow Fiber Assay IP score ([3]; Table 9, intraperitoneal fibers): 4
Hollow Fiber Assay SC score ([3]; Table 9, subcutaneous fibers): 0
Hollow Fiber Assay Total Ip and SC Score ([3]; Table 9): 0

Compound: O=C1C=CC(=O)C(CNc2ccc(C(=O)OC34CC5CC(CC(C5)C3)C4)cc2)=C1 [Compound 22, 4′-adamantylbenzoate-1′-N-p-quinone-2-methyl amine]
IC50 [1, 6]: 32 ± 0.5 µM
GI50 ([2]; Table 9): 4.79 µM
Tumor Cell Mean log TGI ([2]; Table 9): −4.72

Compound: COC(=O)c1ccc(/C=C/C2=CC(=O)C=CC2=O)cc1 [Compound 33]
IC50 (p210^ber-abi in vitro phosphorylation) [4]: No Effect
IC50 [1, 5]: 7.5 µM

Continued, in another order:

IC50 ([1]; Table 10, mean ± S.E., 4 or more experiments, read-out: IC50 (μM) 6dMTT): 5.65 ± 0.8 µM
Compound: COC(=O)c1ccc(CCC2=CC(=O)C=CC2=O)cc1 [COOCH3 / 2,5-quinoyl / CH2—CH2 / H]
Tumor Cell Mean log GI50 ([2]; Table 10): −5.00
Tumor Cell Mean log TGI ([2]; Table 10): −4.65
Hollow Fiber Assay IP score ([3]; Table 10): 6
Hollow Fiber Assay SC score ([3]; Table 10): 4
Hollow Fiber Assay Total Ip and SC Score ([3]; Table 10): 10

IC50 [1, 6]: 9.11 ± 1 µM
Compound: COC(=O)c1ccc(NCC2=CC(=O)c3ccccc3C2=O)cc1 [Compound 19, 4′-methylbenzoate-1′-N-1,4-methylnaphthoquinone amine]
GI50 ([2]; Table 9): 13.8 µM
Tumor Cell Mean log TGI ([2]; Table 9): −4.41

IC50 [4]: 25 µM
IC50 [1, 5]: 26 µM
Compound: CC(C)OC(=O)c1ccc(CCC2=CC(=O)C=CC2=O)cc1 [Compound 30]

IC50 (p210^ber-abi in vitro phosphorylation) [4]: No Effect
IC50 [1, 5]: 10 µM
Compound: CC(C)OC(=O)c1ccc(CCC2=CC(=O)C(Br)=CC2=O)cc1 [Compound 32]

Source: patent publication US6943191B1, “Disubstituted lavendustin A analogs and pharmaceutical composition comprising the analogs” (The United States of America as represented by the …, priority 1998, dated 2005)
